According to US7847065B2, “CXADRL1 polypeptides relating to human cancers” (Oncotherapy Science, Inc., priority 2002, dated 2010):
Ends that are not written are not given here.

Key:
SNU475 cells = test: Blocking assay with antibodies, target SNU475; type: cell-based, human
Description: (§1) Target cells were labeled with 100 μCi of Na2^51CrO4 (Perkin Elmer Life Sciences) for 1 h at 37° C. in a CO2 incubator. When peptide-pulsed targets were used, target cells were incubated with the addition of 20 μg/ml of the peptide for 16 h at 37° C. before the labeling with Na2^51CrO4. Target cells were rinsed and mixed with effectors at a final volume of 0.2 ml in round-bottom microtiter plates. The plates were centrifuged (4 minutes at 800×g) to increase cell-to-cell contact and placed in a CO2 incubator at 37° C. After 4 h of incubation, 0.1 ml of the supernatant was collected from each well and the radioactivity was determined with a gamma counter. In case of evaluating cytotoxicity against target cells that endogenously express RNF43, CXADRL1, or GCUD1, the cytolytic activity was tested in the presence of a 30-fold excess of unlabeled K562 cells to reduce any non-specific lysis due to NK-like effectors. […] The MHC restriction was examined by blocking assay, measuring the inhibition of the cytotoxicity with anti-HLA-class I (W6/32) antibody and anti-HLA-class II antibody, or anti-CD4 antibody and anti-CD8 antibody (DAKO).

SNU475 = test: Cytotoxicity of CTLs against tumor cell line SNU475; type: cell-based, human; conditions: SNU475 expresses CXADRL1, GCUD1 and HLA-A*0201
Description: as §1
(§2) The percentage of specific cytotoxicity was determined by calculating the percentage of specific ^51Cr-release by the following formula: {(cpm of the test sample release−cpm of the spontaneous release)/(cpm of the maximum release−cpm of the spontaneous release)}×100. Spontaneous release was determined by incubating the target cells alone in the absence of effectors, and the maximum release was obtained by incubating the targets with 1N HCl. All determinants were done in duplicate, and the standard errors of the means were consistently below 10% of the value of the mean.

T2 cells (HLA-A*0201) [1] = test: 51Cr-release cytotoxicity assay of peptide-induced CTLs on T2 cells
Description: as §1, §2

MKN45 = test: Cytotoxicity of CTL clone against tumor cell line MKN45; type: cell-based, human; conditions: expresses GCUD1 but not HLA-A*0201
Description: Target cells were labeled with 100 μCi of Na2^51CrO4 (Perkin Elmer Life Sciences) for 1 h at 37° C. in a CO2 incubator. When peptide-pulsed targets were used, target cells were incubated with the addition of 20 μg/ml of the peptide for 16 h at 37° C. before the labeling with Na2^51CrO4. Target cells were rinsed and mixed with effectors at a final volume of 0.2 ml in round-bottom microtiter plates. The plates were centrifuged (4 minutes at 800×g) to increase cell-to-cell contact and placed in a CO2 incubator at 37° C. After 4 h of incubation, 0.1 ml of the supernatant was collected from each well and the radioactivity was determined with a gamma counter. In case of evaluating cytotoxicity against target cells that endogenously express RNF43, CXADRL1, or GCUD1, the cytolytic activity was tested in the presence of a 30-fold excess of unlabeled K562 cells to reduce any non-specific lysis due to NK-like effectors. […]
The percentage of specific cytotoxicity was determined by calculating the percentage of specific ^51Cr-release by the following formula: {(cpm of the test sample release−cpm of the spontaneous release)/(cpm of the maximum release−cpm of the spontaneous release)}×100. Spontaneous release was determined by incubating the target cells alone in the absence of effectors, and the maximum release was obtained by incubating the targets with 1N HCl. […]

T2 cells (HLA-A*0201) [2] = test system: T2 cells (HLA-A*0201)
Description: as §1, §2

Description for TISI cells (HLA-A24/24): as §1, §2

## KMDAEHPEL [GCUD1-196, KMDAEHPEL]
SNU475 cells
  Cytotoxicity of CTL clone against SNU475 with anti-HLA-Class I antibody and anti-CD8 antibody: significantly inhibited
SNU475
  Cytotoxic activity of peptide-induced CTLs against SNU475: potent cytotoxic activity
T2 cells (HLA-A*0201) [1]; T2 not pulsed with any peptide
  Cytotoxic activity of peptide-induced CTL line/clone on non-pulsed target: without showing any cytotoxic activity
T2 cells (HLA-A*0201) [1]; T2 pulsed with the peptide
  Cytotoxic activity of peptide-induced CTL line/clone on peptide-pulsed target: very potent cytotoxic activity
MKN45
  Cytotoxic activity of CTL clone against MKN45: not against

## KMDAEHPEV [GCUD1-9V, KMDAEHPEV]
SNU475
  Cytotoxic activity of peptide-induced CTLs against SNU475: killed

## KMDPTGKLNL [RNF43-54, KMDPTGKLNL]
TISI cells (HLA-A24/24)
  Cytotoxic activity of peptide-induced CTL line/clone on peptide-pulsed target: modest cytotoxic activity
  Cytotoxicity of CTL lines (10mer) ×2 Pep(+): 0%
  Cytotoxicity of CTL lines (10mer) ×2 Pep(−): −1%
  Cytotoxicity of CTL lines (10mer) ×20 Pep(+): 5%
  Cytotoxicity of CTL lines (10mer) ×20 Pep(−): 2%

## LFNLQKSSL [RNF43-639, LFNLQKSSL]
TISI cells (HLA-A24/24)
  Cytotoxic activity of peptide-induced CTL line/clone on peptide-pulsed target: higher cytotoxic activities
  Cytotoxicity of CTL lines (9mer) ×2 Pep(+): 7%
  Cytotoxicity of CTL lines (9mer) ×2 Pep(−): 5%
  Cytotoxicity of CTL lines (9mer) ×20 Pep(+): 42%
  Cytotoxicity of CTL lines (9mer) ×20 Pep(−): 33%

## LLGPSRSAV [RNF43-358, LLGPSRSAV]
T2 cells (HLA-A*0201) [2]
  Cytotoxicity(%) ×2 Pep(+): 0.0%
  Cytotoxicity(%) ×2 Pep(−): −0.8%
  Cytotoxicity(%) ×20 Pep(+): −0.4%
  Cytotoxicity(%) ×20 Pep(−): −0.7%

## LMQSHPLYL [RNF43-82, LMQSHPLYL]
T2 cells (HLA-A*0201) [2]
  Cytotoxicity(%) ×2 Pep(+): 0.0%
  Cytotoxicity(%) ×2 Pep(−): −0.4%
  Cytotoxicity(%) ×20 Pep(+): 1.7%
  Cytotoxicity(%) ×20 Pep(−): 1.2%

## RAPGEQQRL [RNF43-397, RAPGEQQRL]
TISI cells (HLA-A24/24)
  Cytotoxicity of CTL lines (9mer) ×2 Pep(+): 15%
  Cytotoxicity of CTL lines (9mer) ×2 Pep(−): 15%
  Cytotoxicity of CTL lines (9mer) ×20 Pep(+): 41%
  Cytotoxicity of CTL lines (9mer) ×20 Pep(−): 32%

## RAPRPCLSL [RNF43-114, RAPRPCLSL]
TISI cells (HLA-A24/24)
  Cytotoxicity of CTL lines (9mer) ×2 Pep(+): 6%
  Cytotoxicity of CTL lines (9mer) ×2 Pep(−): 9%
  Cytotoxicity of CTL lines (9mer) ×20 Pep(+): 23%
  Cytotoxicity of CTL lines (9mer) ×20 Pep(−): 26%

## RPPRPGPFL [RNF43-368, RPPRPGPFL]
TISI cells (HLA-A24/24)
  Cytotoxicity of CTL lines (9mer) ×2 Pep(+): 0%
  Cytotoxicity of CTL lines (9mer) ×2 Pep(−): 0%
  Cytotoxicity of CTL lines (9mer) ×20 Pep(+): 1%
  Cytotoxicity of CTL lines (9mer) ×20 Pep(−): 0%

## RYQASCRQA [RNF43-247, RYQASCRQA]
TISI cells (HLA-A24/24)
  Cytotoxicity of CTL lines (9mer) ×2 Pep(+): 28%
  Cytotoxicity of CTL lines (9mer) ×2 Pep(−): 16%
  Cytotoxicity of CTL lines (9mer) ×20 Pep(+): 71%
  Cytotoxicity of CTL lines (9mer) ×20 Pep(−): 82%

## SYCTERSGYL [RNF43-449, SYCTERSGYL]
TISI cells (HLA-A24/24)
  Cytotoxicity of CTL lines (10mer) ×2 Pep(+): 0%
  Cytotoxicity of CTL lines (10mer) ×2 Pep(−): 0%
  Cytotoxicity of CTL lines (10mer) ×20 Pep(+): 1%
  Cytotoxicity of CTL lines (10mer) ×20 Pep(−): 1%

## SYQEPGRRL [RNF43-331, SYQEPGRRL]
TISI cells (HLA-A24/24)
  Cytotoxicity of CTL lines (9mer) ×2 Pep(+): 0%
  Cytotoxicity of CTL lines (9mer) ×2 Pep(−): 0%
  Cytotoxicity of CTL lines (9mer) ×20 Pep(+): 2%
  Cytotoxicity of CTL lines (9mer) ×20 Pep(−): 1%

## TFCSSLSSDF [RNF43-496, TFCSSLSSDF]
TISI cells (HLA-A24/24)
  Cytotoxicity of CTL lines (10mer) ×2 Pep(+): 0%
  Cytotoxicity of CTL lines (10mer) ×2 Pep(−): 0%
  Cytotoxicity of CTL lines (10mer) ×20 Pep(+): 8%
  Cytotoxicity of CTL lines (10mer) ×20 Pep(−): 9%

## WLHQHRTCPL [RNF43-302, WLHQHRTCPL]
T2 cells (HLA-A*0201) [2]
  Cytotoxicity(%) ×2 Pep(+): 1.5%
  Cytotoxicity(%) ×2 Pep(−): 2.2%
  Cytotoxicity(%) ×20 Pep(+): 7.4%
  Cytotoxicity(%) ×20 Pep(−): 6.1%

## WLLMATLQA [RNF43-15, WLLMATLQA]
T2 cells (HLA-A*0201) [2]
  Cytotoxicity(%) ×2 Pep(+): −0.4%
  Cytotoxicity(%) ×2 Pep(−): −0.9%
  Cytotoxicity(%) ×20 Pep(+): −0.2%
  Cytotoxicity(%) ×20 Pep(−): 0.0%

## YLLGPSRSAV [RNF43-357, YLLGPSRSAV]
T2 cells (HLA-A*0201) [2]
  Cytotoxicity(%) ×2 Pep(+): 3.7%
  Cytotoxicity(%) ×2 Pep(−): 3.0%
  Cytotoxicity(%) ×20 Pep(+): 18.2%
  Cytotoxicity(%) ×20 Pep(−): 15.4%
